Test results taken from the NIST ThermoML archive (doi:10.1021/je900570e).
Values joined by “and” are separate entries in the source; they are usually repeats but may differ in a detail not shown here. Equal values may be shown once.

How the values were obtained:
[1] = Liquid; for mass density: 101.33 kPa, Vibrating tube method; for viscosity / speed of sound: 101 kPa; for viscosity: Capillary tube (Ostwald / Ubbelohde) method; for speed of sound: Frequency=2 MHz, Pulse-echo method
[2] = xn = mol fraction of the nth substance listed; conditions: Liquid; for viscosity / speed of sound: 101 kPa; for viscosity: Capillary tube (Ostwald / Ubbelohde) method; for speed of sound: Frequency=2 MHz, Pulse-echo method; for mass density: 101.33 kPa, Vibrating tube method

ClC(Cl)C(Cl)Cl [1,1,2,2-tetrachloroethane]
[1]
Conditions	mass density [kg/m3]	speed of sound [m/s]	viscosity [mPa·s]
298.15 K	1586.8	–	–
303.15 K	1579.6	1134.7	1.456
308.15 K	1570.6	1115.5	1.354
313.15 K	1563.7	1095.5	1.261

ClC(Cl)C(Cl)Cl [1,1,2,2-tetrachloroethane] + N#CCc1ccccc1
[2], x2 = 0
Conditions	mass density [kg/m3]	speed of sound [m/s]	viscosity [mPa·s]
303.15 K	1579.6	1134.7	1.456
308.15 K	1570.6	1115.5	1.354
313.15 K	1563.7	1095.5	1.261

ClCC(Cl)Cl [1,1,2-trichloroethane]
[1]
Conditions	mass density [kg/m3]	speed of sound [m/s]	viscosity [mPa·s]
298.15 K	–	–	1.105
303.15 K	1425	1129.2	1.019
308.15 K	1416.1	1115.9	0.9483
313.15 K	1409.6	1096.1	0.8888

ClCCCl [1,2-dichloroethane]
[1]
Conditions	mass density [kg/m3]	speed of sound [m/s]	viscosity [mPa·s]
298.15 K	1246.7	–	0.776
303.15 K	1238.7	1174	0.7237
308.15 K	1230.5	1164.8	0.6737
313.15 K	1223.7	1153.5	0.6419

ClCCCl [1,2-dichloroethane] + N#CCc1ccccc1
[2], x2 = 0
Conditions	mass density [kg/m3]	speed of sound [m/s]	viscosity [mPa·s]
303.15 K	1238.7	1174	0.7237
308.15 K	1230.5	1164.8	0.6737
313.15 K	1223.7	1153.5	0.6419

N#CCc1ccccc1 [benzeneacetonitrile]
[1]
Conditions	mass density	speed of sound [m/s]	viscosity [mPa·s]
303.15 K	1008.83 kg/m3 and 1008.8 kg/m3	1519.2	1.761
308.15 K	1004.1 kg/m3	1512.9	1.602
313.15 K	999.5 kg/m3	1503.4	1.489

N#CCc1ccccc1 [benzeneacetonitrile] + ClCC(Cl)Cl
[2], x1 = 1
Conditions	mass density [kg/m3]	speed of sound [m/s]	viscosity [mPa·s]
303.15 K	1008.8	1519.2	1.761
308.15 K	1004.1	1512.9	1.602
313.15 K	999.5	1503.4	1.489

ClC(Cl)=C(Cl)Cl [tetrachloroethene]
[1]
Conditions	mass density [kg/m3]	speed of sound [m/s]	viscosity [mPa·s]
298.15 K	1614.8	–	0.847
303.15 K	1607.2	1028	0.7971
308.15 K	1597.9	1014	0.7657
313.15 K	1590.6	996.6	0.7395

ClC(Cl)=C(Cl)Cl [tetrachloroethene] + N#CCc1ccccc1
[2], x2 = 0
Conditions	mass density [kg/m3]	speed of sound [m/s]	viscosity [mPa·s]
303.15 K	1607.2	1028	0.7971
308.15 K	1597.9	1014	0.7657
313.15 K	1590.6	996.6	0.7395

ClC=C(Cl)Cl [trichloroethene]
[1]
Conditions	mass density [kg/m3]	speed of sound [m/s]	viscosity [mPa·s]
298.15 K	1455.9	–	0.527
303.15 K	1447.5	1014.7	0.5172
308.15 K	1437.8	993.7	0.4992
313.15 K	1430.4	982	0.4833

ClC=C(Cl)Cl [trichloroethene] + N#CCc1ccccc1
[2], x2 = 0
Conditions	mass density [kg/m3]	speed of sound [m/s]	viscosity [mPa·s]
303.15 K	1447.5	1014.7	0.5172
308.15 K	1437.8	993.7	0.4992
313.15 K	1430.4	982	0.4833
